Reference: US10961200B2, “Small molecule inhibitors of lactate dehydrogenase and methods of use thereof” (THE UNITED STATES OF AMERICA, AS REPRESENTED BY THE …, priority 2014, dated 2021)

Legend:
Human LDHA = Human LDHA (Homo sapiens (Human), UniProt P00338); assay: human LDHA primary biochemical assay (resazurin/diaphorase coupled, fluorescence); details: LDHA inhibitory activity, activity level based on IC50 (Table 7)
Excerpt: Test compounds were placed in a Greiner Bio-One (Monroe, N.C.) 1536-well black solid bottom assay plate. 200 millimolar (mM) Tris HCl, pH 7.4, 100 micromolar […] EDTA and 0.01% TWEEN-20™, final concentration, was used as the assay buffer. The LDHA reagent was 2 nanomolar (nM) Human LDHA (Meridian Life Science, Inc., Memphis, Tenn.), final concentration, in assay buffer.

MiaPaCa2 cells = assay: cell-based HT lactate assay, colorimetric/fluorometric detection (inhibition of lactate production); details: class symbols, 0 to 3 pluses

| IC50 (MiaPaCa2 cells; Homo sapiens, MIA PaCa-2) | Compound | IC50 (Human LDHA) | IC50 (MiaPaCa2 cells) |
| --- | --- | --- | --- |
| – | CC(C)c1cc(-c2nn(-c3nc(C(=O)O)cs3)c(CC3CC3)c2Cc2ccc(S(N)(=O)=O)c(F)c2)ccc1F [Compound 383] | < 100 nM | < 1000 nM |
| – | CC(c1ccccc1)c1cc(-c2nn(-c3nc(C(=O)O)cs3)c(CC3CC3)c2Cc2ccc(S(N)(=O)=O)c(F)c2)ccc1F (stereo not shown) [Compound 384] | < 100 nM | < 1000 nM |
| – | N[S+](=O)([O-])c1ccc(Cc2c(-c3ccc(F)c(C4CC4)c3)nn(-c3nc(C(=O)O)cs3)c2CC2CC2)cc1F [Compound 385] | < 100 nM | < 1000 nM |
| – | CC(C)(C)Cc1cc(-c2nn(-c3nc(C(=O)O)cs3)c(CC3CC3)c2Cc2ccc(S(N)(=O)=O)c(F)c2)ccc1F [Compound 386] | < 100 nM | < 1000 nM |
| – | N[S+](=O)([O-])c1ccc(Cc2c(-c3ccc(F)c(-c4cccc(CN5CCOCC5)c4)c3)nn(-c3nc(C(=O)O)cs3)c2CC2CC2)cc1F [Compound 387] | < 100 nM | 1000 to 10000 nM |
| – | N[S+](=O)([O-])c1ccc(Cc2c(-c3ccc(F)c(CCCCC(F)(F)F)c3)nn(-c3nc(C(=O)O)cs3)c2CC2CC2)cc1F [Compound 388] | < 100 nM | 1000 to 10000 nM |
| – | CNS(=N)(=O)c1ccc(Cc2c(-c3ccc(F)c(-c4cccc(F)c4)c3)nn(-c3nc(C(=O)O)cs3)c2CC2CC2)cc1F (stereo not shown) [Compound 389] | 100 to 1000 nM | 1000 to 10000 nM |
| – | CN1CCC(c2cc(-c3nn(-c4nc(C(=O)O)cs4)c(CC4CC4)c3Cc3ccc([S+](N)(=O)[O-])c(F)c3)ccc2F)CC1 [Compound 390] | < 100 nM | > 57000 nM |
| – | N[S+](=O)([O-])c1ccc(Cc2c(-c3ccc(F)c(C4CCOCC4)c3)nn(-c3nc(C(=O)O)cs3)c2CC2CC2)cc1F [Compound 391] | < 100 nM | < 1000 nM |
| – | CCOC(=O)c1csc(-n2nc(-c3cccc(-c4ccccc4)c3)c(Cc3ccc(S(N)(=O)=O)c(F)c3)c2CC2CC2)n1 [Compound 393] | > 57000 nM | > 57000 nM |
| – | NS(=O)(=O)c1ccc(Cc2c(-c3cccc(N4CCC(F)(F)CC4)c3)nn(-c3nc(C(=O)O)cs3)c2CC2CC2)cc1F [Compound 394] | < 100 nM | 10000 to 57000 nM |
| – | NS(=O)(=O)c1ccc(Cc2c(-c3cccc(N4CCC(F)(F)C4)c3)nn(-c3nc(C(=O)O)cs3)c2CC2CC2)cc1F [Compound 395] | 1000 to 57000 nM | 10000 to 57000 nM |
| – | NS(=O)(=O)c1ccc(Cc2c(-c3cccc(N4CCCC(C(F)(F)F)C4)c3)nn(-c3nc(C(=O)O)cs3)c2CC2CC2)cc1F (stereo not shown) [Compound 396] | < 100 nM | 1000 to 10000 nM |
| – | NS(=O)(=O)c1ccc(Cc2c(-c3cccc(N4CCCC(F)(F)C4)c3)nn(-c3nc(C(=O)O)cs3)c2CC2CC2)cc1F [Compound 397] | < 100 nM | 1000 to 10000 nM |
| – | NS(=O)(=O)c1ccc(Cc2c(-c3cccc(C(O)(C4CC4)C(F)(F)F)c3)nn(-c3nc(C(=O)O)cs3)c2CC2CC2)cc1F (stereo not shown) [Compound 398] | < 100 nM | 10000 to 57000 nM |
| > 57000 nM | N[S+](=O)([O-])c1ccc(Cc2c(CC3CC3)nn(-c3nc(C(=O)O)cs3)c2-c2ccc(C(O)(C3CC3)C(F)(F)F)cc2)cc1F (stereo not shown) [Compound 399] | 1000 to 57000 nM | – |
| – | NS(=O)(=O)c1ccc(Cc2c(-c3ccc(F)c(OCC4CC4(F)F)c3)nn(-c3nc(C(=O)O)cs3)c2CC2CC2)cc1F (stereo not shown) [Compound 400] | < 100 nM | < 1000 nM |
| – | CC(C)(C)C#Cc1cc(-c2nn(-c3nc(C(=O)O)cs3)c(CC3CC3)c2Cc2ccc(S(N)(=O)=O)c(F)c2)ccc1F [Compound 402] | < 100 nM | < 1000 nM |
| – | NS(=O)(=O)c1ccc(Cc2c(-c3ccc(F)c(C#Cc4cccs4)c3)nn(-c3nc(C(=O)O)cs3)c2CC2CC2)cc1F [Compound 403] | < 100 nM | < 1000 nM |
| < 1000 nM | COCC#Cc1cc(-c2nn(-c3nc(C(=O)O)cs3)c(CC3CC3)c2Cc2ccc([S+](N)(=O)[O-])c(F)c2)ccc1F [Compound 404] | < 100 nM | – |
| – | Cn1cncc1C#Cc1cc(-c2nn(-c3nc(C(=O)O)cs3)c(CC3CC3)c2Cc2ccc(S(N)(=O)=O)c(F)c2)ccc1F [Compound 405] | < 100 nM | < 1000 nM |
| – | NS(=O)(=O)c1ccc(Cc2c(-c3ccc(F)c(C4CC4)c3)nn(-c3nc(C(=O)O)cs3)c2CC2CC2)cc1Cl [Compound 406] | < 100 nM | 1000 to 10000 nM |
| – | Cc1ccc(-c2cc(-c3nn(-c4nc(C(=O)O)cs4)c(CC4CC4)c3Cc3ccc(S(N)(=O)=O)c(Cl)c3)ccc2F)s1 [Compound 407] | < 100 nM | < 1000 nM |
| – | Cc1ccc(C#Cc2cc(-c3nn(-c4nc(C(=O)O)cs4)c(CC4CC4)c3Cc3ccc(S(N)(=O)=O)c(F)c3)ccc2F)s1 [Compound 408] | < 100 nM | < 1000 nM |
| 1000 to 10000 nM | N[S+](=O)([O-])c1ccc(Cc2c(-c3ccc(F)c(C#CCCO)c3)nn(-c3nc(C(=O)O)cs3)c2CC2CC2)cc1F [Compound 409] | < 100 nM | – |

| IC50 (MiaPaCa2 cells; Homo sapiens, MIA PaCa-2) | Compound | IC50 (Human LDHA) | IC50 (MiaPaCa2 cells) |
| --- | --- | --- | --- |
| – | C#Cc1cc(-c2nn(-c3nc(C(=O)O)cs3)c(CC3CC3)c2Cc2ccc(S(N)(=O)=O)c(F)c2)ccc1F [Compound 410] | < 100 nM | < 1000 nM |
| – | N[S+](=O)([O-])c1ccc(Cc2c(-c3ccc(F)c(C#CCC4CCCC4)c3)nn(-c3nc(C(=O)O)cs3)c2CC2CC2)cc1F [Compound 411] | < 100 nM | < 1000 nM |
| – | NS(=O)(=O)c1ccc(Cc2c(-c3ccc(F)c(C#CC4(O)CCCC4)c3)nn(-c3nc(C(=O)O)cs3)c2CC2CC2)cc1F [Compound 412] | < 100 nM | 1000 to 10000 nM |
| – | NS(=O)(=O)c1ccc(Cc2c(-c3ccc(F)c(C#CC4(F)COC4)c3)nn(-c3nc(C(=O)O)cs3)c2CC2CC2)cc1F [Compound 414] | < 100 nM | 1000 to 10000 nM |
| – | NS(=O)(=O)c1ccc(Cc2c(-c3ccc(F)c(C#CC4(O)COC4)c3)nn(-c3nc(C(=O)O)cs3)c2CC2CC2)cc1F [Compound 415] | < 100 nM | 1000 to 10000 nM |
| – | CC1(C#Cc2cc(-c3nn(-c4nc(C(=O)O)cs4)c(CC4CC4)c3Cc3ccc(S(N)(=O)=O)c(F)c3)ccc2F)COC1 [Compound 416] | < 100 nM | 1000 to 10000 nM |
| – | N[S+](=O)([O-])c1ccc(Cc2c(-c3ccc(F)c(C#CCN4CCCC4)c3)nn(-c3nc(C(=O)O)cs3)c2CC2CC2)cc1F [Compound 417] | < 100 nM | 1000 to 10000 nM |
| – | NS(=O)(=O)c1ccc(Cc2c(-c3ccc(F)c(C#CC4(O)CCOC4)c3)nn(-c3nc(C(=O)O)cs3)c2CC2CC2)cc1F (stereo not shown) [Compound 418] | < 100 nM | 1000 to 10000 nM |
| – | NS(=O)(=O)c1ccc(Cc2c(-c3ccc(F)c(C#CC4(F)CCOC4)c3)nn(-c3nc(C(=O)O)cs3)c2CC2CC2)cc1F (stereo not shown) [Compound 419] | < 100 nM | < 1000 nM |
| – | CC#Cc1cc(-c2nn(-c3nc(C(=O)OCC)cs3)c(CC3CC3)c2Cc2ccc(S(N)(=O)=O)c(F)c2)ccc1F [Compound 420] | 1000 to 57000 nM | > 57000 nM |
| – | N[S+](=O)([O-])c1ccc(Cc2c(-c3ccc(F)c(C#CCC4CCCO4)c3)nn(-c3nc(C(=O)O)cs3)c2CC2CC2)cc1F (stereo not shown) [Compound 421] | < 100 nM | 1000 to 10000 nM |
| – | CC#Cc1cc(-c2nn(-c3nc(C(=O)O)cs3)c(CC3CC3)c2Cc2cccc([S+](N)(=O)[O-])c2)ccc1F [Compound 422] | < 100 nM | 10000 to 57000 nM |
| – | NS(=O)(=O)c1ccc(Cc2c(-c3ccc(F)c(C#CC4CCOC4)c3)nn(-c3nc(C(=O)O)cs3)c2CC2CC2)cc1F (stereo not shown) [Compound 423] | < 100 nM | < 1000 nM |
| – | CCOC(=O)c1csc(-n2nc(-c3cccc(C#CC4CCCC4)c3)c(Cc3ccc(S(N)(=O)=O)c(F)c3)c2CC2CC2)n1 [Compound 428] | > 57000 nM | > 57000 nM |
| – | CCOC(=O)c1csc(-n2nc(-c3ccc(F)c(C#CC4CCCC4)c3)c(Cc3ccc([S+](N)(=O)[O-])cc3)c2CC2CC2)n1 [Compound 429] | 1000 to 57000 nM | > 57000 nM |
| – | N[S+](=O)([O-])c1ccc(Cc2c(-c3ccc(F)c(C#CC4CCCC4)c3)nn(-c3nc(C(=O)O)cs3)c2CC2CC2)cc1 [Compound 430] | < 100 nM | < 1000 nM |
| – | N[S+](=O)([O-])c1ccc(Cc2c(-c3ccc(F)c(C#CC4CCCC4)c3)nn(-c3nc(C(=O)O)cs3)c2C2CC2)cc1F [Compound 431] | < 100 nM | < 1000 nM |
| – | N[S+](=O)([O-])c1ccc(Cc2c(-c3cccc(C#CC4CCCC4)c3)nn(-c3nc(C(=O)O)cs3)c2CC2CC2)cc1F [Compound 432] | < 100 nM | < 1000 nM |
| – | N[S+](=O)([O-])c1ccc(Cc2c(-c3ccc(F)c(C#CC4CC4)c3)nn(-c3nc(C(=O)O)cs3)c2CC2CC2)cc1 [Compound 433] | < 100 nM | < 1000 nM |
| – | CCOC(=O)c1csc(-n2nc(-c3ccc(F)c(C#CC4CCCC4)c3)c(Cc3ccc(S(N)(=O)=O)c(F)c3)c2C2CC2)n1 [Compound 434] | 1000 to 57000 nM | > 57000 nM |
| – | CCOC(=O)c1csc(-n2nc(-c3ccc(F)c(C#CC4CC4)c3)c(Cc3ccc(S(N)(=O)=O)cc3)c2CC2CC2)n1 [Compound 435] | 1000 to 57000 nM | > 57000 nM |
| – | NS(=O)(=O)c1ccc(Cc2c(-c3ccc(F)c(C#CC4(F)CCCC4)c3)nn(-c3nc(C(=O)O)cs3)c2CC2CC2)cc1F [Compound 436] | < 100 nM | < 1000 nM |
| – | NS(=O)(=O)c1ccc(Cc2c(-c3ccc(F)c(C#CCC4CC4)c3)nn(-c3nc(C(=O)O)cs3)c2CC2CC2)cc1F [Compound 437] | < 100 nM | < 1000 nM |
| – | N[S+](=O)([O-])c1cccc(Cc2c(-c3ccc(F)c(C#CC4CCCC4)c3)nn(-c3nc(C(=O)O)cs3)c2CC2CC2)c1 [Compound 438] | 100 to 1000 nM | 1000 to 10000 nM |
| – | NS(=O)(=O)c1ccc(Cc2c(-c3ccc(F)c(C#CC(F)F)c3)nn(-c3nc(C(=O)O)cs3)c2CC2CC2)cc1F [Compound 440] | < 100 nM | 1000 to 10000 nM |
